Laboratory results as given in patent US20120028897A1, “METHODS AND COMPOSITIONS FOR THE TREATMENT OF FLUID RETENTION DISORDERS” (priority 2008, published 2012).

Key:
Format in all cases: in vivo, rat
anesthetized rats [1] = assay: Renal potassium excretion during and after iv peptide infusion in anesthetized rats
Protocol: Rats were not fasted prior to clearance experiments and ranged in weight from 250-340 g at the time of study. Anesthesia was induced with an intraperitoneal injection of pentobarbital sodium (55 mg/kg BW) and maintained at a surgical plane by intermittent intravenous supplementation. Core temperature was maintained at 37° C. by a servo-controlled, heated operating table. Animals breathed spontaneously through a PE240 cannula inserted into the trachea. A jugular vein was catheterized with PE50 cannula tubing for intravenous infusion of isotonic saline containing FITC-labeled inulin (0.4% W/V, Sigma, St Louis Mo.) and two PE10 cannulae, one for supplemental anesthetic and the other for peptide infusions (described below in the experimental protocol section). The ureters were exposed through a midline ventral incision and cannulated with PE10 tubing about one cm from each kidney. Urine was collected over 20 min periods and the volume estimated by weight. A femoral artery was cannulated with PE50 tubing for continuous measurement of arterial blood pressure and intermittent blood samples (50 μl), taken at the mid point of each urine collection.
(§1) Arterial blood pressure was measured with a pressure transducer connected to a cardiovascular analyzer (Model 50110, Stoelting Instruments Wood Dale, Ill.). Left renal blood flow was measured in some rats with a flow probe positioned on the left renal artery and connected to a blood flow monitor (model 1 PRB probe and model T420 monitor, Transonic Systems Inc. Ithaca N.Y.). Arterial pressure, heart rate, and renal blood flow were digitized with an A/D converter (Keithley instruments, Cleveland, Ohio Model KUSB 3100) for display and storage on a Windows-based personal computer using open layers data acquisition software (Dtx_Ez, Data Translation Inc, Marlboro, Mass.). Sodium and potassium concentrations in plasma and urine were measured by flame photometry (Model 943, Instrumentation Laboratory Co., Lexington Mass.). Glomerular filtration rate (GFR) was measured as the renal clearance rate of FITC-labeled inulin
(§2) After post-surgical equilibration (−60 min) and three 20 min control clearance periods, huUgnA or B was infused into the jugular vein at 10 μl/min over a 60 min period, followed by a return to isotonic saline for the remainder of the experiment. The infused doses of huUgnA were 12, 25, 50, 100, or 200 nmol/kg BW in a total of 38 rats; huUgnB doses were 9, 18, 35, 70, and 140 nmol/kg BW in 35 rats. A UgnA mimetic, E. coli STh (ST-core), was infused into a third group of 32 rats at doses of 17, 32, 66, 133, and 266 nmol/kg. Renal excretory responses to these infusions were slow to develop and long lasting, so clearance periods were continued for 2-3 hr after the termination of the peptide infusion. This protracted time course limited protocols to one dose of one peptide in each rat. A control group of 10 rats received isotonic saline at 10 μl/min in place of the peptide infusion, but was otherwise treated in the same way as the experimental groups.
Sodium and potassium excretion rates are expressed as absolute values (UNaV and UKV) or factored by filtered load to provide fractional excretion (FENa and FEK). Glomerular filtration rate (GFR) was equated with inulin clearance. The net natriuretic response to peptide infusions was assessed by summing total Na excretion during infusion and post-infusion collection periods in each rat after subtraction of corresponding mean values obtained from the control group. The cumulative net excretion obtained in this way provides a measure of the natriuretic response to each dose of peptide infused. Results from both kidneys were averaged for each rat before calculating group means±sem.
Group comparisons were made with one way analysis of variance (ANOVA) using peptide doses as column variables. […]

anesthetized rats [2] = assay: Glomerular filtration rate (FITC-inulin clearance) during and after iv peptide infusion
Protocol: All rats received a continuous intravenous infusion (10 μl/min/100 g BW) of isotonic saline containing FITC-labeled inulin for measurement of inulin clearance. Uncongugated FITC label and small inulin polymers were removed from the inulin solution by overnight dialysis against isotonic saline (SpectraPor 6 dialysis membrane, 1 kDa cutoff-limit, Spectrum Laboratories, Rancho Domingo, Calif.). Undissolved particulates were removed from the solution by filtration through a […] filter before each experiment (Steriflip, Millipore Inc. Billerica, Mass.). At least one hr was allowed for equilibration before the start of urine collections, at which point plasma inulin concentration had stabilized at an average value of 30±3 μg/ml.
as §1, §2
This assay was based on the method described by Lorenz and Gruenstein. Urine samples were diluted with hepes-buffered saline (3, 5, 10, or 20 fold, based on urine flow) to neutralize the pH and bring the intensity of FITC emissions into detector range. Small volumes (3-5 μl) of diluted urine and undiluted plasma samples were drawn into constant bore capillary tubes (10 μl Microcap tubes, Drummond Scientific Company, Broomall Pa.) and sealed at each end with water-saturated mineral oil. FITC emission intensity was measured by imaging each sample at 10× magnification with an epifluorescence microscope (Axiovert S100TV, Carl Zeiss Inc. Thornwood, N.Y.) fitted with a CCD camera (Orca II, Hamamatsu Inc. Bridgewater, N.J.) controlled by Metamorph imaging software (Molecular Devices, Sunnyvale, Calif.). Fluorescence intensities were measured as mean pixel intensity obtained from a consistent central region of each sample during a 25 or 500 msec exposure for urine and plasma, respectively. Background intensities were measured in the same way using bladder urine and tail vein plasma collected from the same rat before the beginning of inulin infusion. Inulin concentrations in plasma and urine samples were calculated from a standard curve prepared from the infusion solution used in each experiment. […]

anesthetized rats [3] = assay: Renal blood flow (flow probe on left renal artery)
Protocol: as §1, §2

CC(C)C[C@H](NC(=O)[C@@H]1CSSC[C@@H]2NC(=O)[C@H](CC(C)C)NC(=O)[C@H](CCC(=O)O)NC(=O)[C@@H](NC(=O)[C@H](CC(=O)O)NC(=O)[C@H](CC(=O)O)NC(=O)[C@@H](N)CC(N)=O)CSSC[C@H](NC(=O)[C@H](C)NC(=O)[C@H](C(C)C)NC(=O)[C@H](CC(N)=O)NC(=O)[C@H](C(C)C)NC2=O)C(=O)N[C@@H]([C@@H](C)O)C(=O)NCC(=O)N1)C(=O)O (single isomer, unassigned) [huUgnB, Asn Asp Asp Cys Glu Leu Cys Val Asn Val Ala Cys Thr Gly Cys Leu]
FEK (fractional potassium excretion) (anesthetized rats [1]; huUgnB 9 nmol, Infuse): 30.6 ± 6.1 % of filtered
UKV (potassium excretion) (anesthetized rats [1]; huUgnB 9 nmol, Infusion): 840 ± 83 nEq/min/g KW
FEK (fractional potassium excretion) (anesthetized rats [1]; huUgnB 9 nmol, Post-infuse): 34.8 ± 3.1 % of filtered
UKV (potassium excretion) (anesthetized rats [1]; huUgnB 9 nmol, Post-infuse): 943 ± 82 nEq/min/g KW
FEK (fractional potassium excretion) (anesthetized rats [1]; huUgnB 9 nmol, Pre-infuse): 23.4 ± 6.0 % of filtered
UKV (potassium excretion) (anesthetized rats [1]; huUgnB 9 nmol, Pre-infuse): 655 ± 79 nEq/min/g KW
FEK (fractional potassium excretion) (anesthetized rats [1]; huUgnB 18 nmol, Infuse): 29.6 ± 3.2 % of filtered
UKV (potassium excretion) (anesthetized rats [1]; huUgnB 18 nmol, Infusion): 860 ± 72 nEq/min/g KW
FEK (fractional potassium excretion) (anesthetized rats [1]; huUgnB 18 nmol, Post-infuse): 39.2 ± 2.6 % of filtered
UKV (potassium excretion) (anesthetized rats [1]; huUgnB 18 nmol, Post-infuse): 1014 ± 79 nEq/min/g KW
FEK (fractional potassium excretion) (anesthetized rats [1]; huUgnB 18 nmol, Pre-infuse): 20.0 ± 2.3 % of filtered
UKV (potassium excretion) (anesthetized rats [1]; huUgnB 18 nmol, Pre-infuse): 592 ± 71 nEq/min/g KW
FEK (fractional potassium excretion) (anesthetized rats [1]; huUgnB 35 nmol, Infuse): 32.6 ± 3.7 % of filtered
UKV (potassium excretion) (anesthetized rats [1]; huUgnB 35 nmol, Infusion): 837 ± 84 nEq/min/g KW
FEK (fractional potassium excretion) (anesthetized rats [1]; huUgnB 35 nmol, Post-infuse): 38.9 ± 3.0 % of filtered
UKV (potassium excretion) (anesthetized rats [1]; huUgnB 35 nmol, Post-infuse): 998 ± 85 nEq/min/g KW
FEK (fractional potassium excretion) (anesthetized rats [1]; huUgnB 35 nmol, Pre-infuse): 25.7 ± 2.4 % of filtered
UKV (potassium excretion) (anesthetized rats [1]; huUgnB 35 nmol, Pre-infuse): 729 ± 79 nEq/min/g KW
FEK (fractional potassium excretion) (anesthetized rats [1]; huUgnB 70 nmol, Infuse): 37.7 ± 9.8 % of filtered
UKV (potassium excretion) (anesthetized rats [1]; huUgnB 70 nmol, Infusion): 1297 ± 209 nEq/min/g KW
FEK (fractional potassium excretion) (anesthetized rats [1]; huUgnB 70 nmol, Post-infuse): 47.1 ± 5.6 % of filtered
UKV (potassium excretion) (anesthetized rats [1]; huUgnB 70 nmol, Post-infuse, * p<0.05 vs time control): 1491 ± 183* nEq/min/g KW
FEK (fractional potassium excretion) (anesthetized rats [1]; huUgnB 70 nmol, Pre-infuse): 20.4 ± 5.5 % of filtered
UKV (potassium excretion) (anesthetized rats [1]; huUgnB 70 nmol, Pre-infuse): 791 ± 265 nEq/min/g KW
FEK (fractional potassium excretion) (anesthetized rats [1]; huUgnB 140 nmol, Infuse): 49.2 ± 3.6 % of filtered
UKV (potassium excretion) (anesthetized rats [1]; huUgnB 140 nmol, Infusion): 1086 ± 124 nEq/min/g KW
UKV (potassium excretion) (anesthetized rats [1]; huUgnB 140 nmol, Post-infuse): 1396 ± 89 nEq/min/g KW
FEK (fractional potassium excretion) (anesthetized rats [1]; huUgnB 140 nmol, Post-infuse, ** p<0.01 vs time control): 58.4 ± 3.5** % of filtered
FEK (fractional potassium excretion) (anesthetized rats [1]; huUgnB 140 nmol, Pre-infuse): 28.3 ± 0.9 % of filtered
UKV (potassium excretion) (anesthetized rats [1]; huUgnB 140 nmol, Pre-infuse): 770 ± 78 nEq/min/g KW
FEK vs control (anesthetized rats [1]; post infusion period, only after the highest doses): increased over control levels
GFR (glomerular filtration rate) (anesthetized rats [2]; huUgnB 9 nmol, Infusion): 918 ± 66 μl/min/g KW
GFR (glomerular filtration rate) (anesthetized rats [2]; huUgnB 9 nmol, Post-infuse): 947 ± 60 μl/min/g KW
GFR (glomerular filtration rate) (anesthetized rats [2]; huUgnB 9 nmol, Pre-infuse): 921 ± 57 μl/min/g KW
GFR (glomerular filtration rate) (anesthetized rats [2]; huUgnB 18 nmol, Infusion): 936 ± 76 μl/min/g KW
GFR (glomerular filtration rate) (anesthetized rats [2]; huUgnB 18 nmol, Post-infuse): 877 ± 80 μl/min/g KW
GFR (glomerular filtration rate) (anesthetized rats [2]; huUgnB 18 nmol, Pre-infuse): 890 ± 55 μl/min/g KW
GFR (glomerular filtration rate) (anesthetized rats [2]; huUgnB 35 nmol, Infusion): 830 ± 48 μl/min/g KW
GFR (glomerular filtration rate) (anesthetized rats [2]; huUgnB 35 nmol, Post-infuse): 870 ± 53 μl/min/g KW
GFR (glomerular filtration rate) (anesthetized rats [2]; huUgnB 35 nmol, Pre-infuse): 866 ± 64 μl/min/g KW
GFR (glomerular filtration rate) (anesthetized rats [2]; huUgnB 70 nmol, Infusion): 867 ± 86 μl/min/g KW
GFR (glomerular filtration rate) (anesthetized rats [2]; huUgnB 70 nmol, Post-infuse): 876 ± 26 μl/min/g KW
GFR (glomerular filtration rate) (anesthetized rats [2]; huUgnB 70 nmol, Pre-infuse): 883 ± 95 μl/min/g KW
GFR (glomerular filtration rate) (anesthetized rats [2]; huUgnB 140 nmol, Infusion): 788 ± 67 μl/min/g KW
GFR (glomerular filtration rate) (anesthetized rats [2]; huUgnB 140 nmol, Post-infuse): 924 ± 46 μl/min/g KW
GFR (glomerular filtration rate) (anesthetized rats [2]; huUgnB 140 nmol, Pre-infuse): 858 ± 86 μl/min/g KW
Renal blood flow (RBF) (anesthetized rats [3]; 35 nmol huUgnB/kg, before (first value of change), n=4): 2.5+0.1 ml/min/g KW
Renal blood flow (RBF) (anesthetized rats [3]; after 35 nmol huUgnB/kg, p<0.001, n=4): 3.0+0.4 ml/min/g KW
